Legend:
2,3-DPG blood levels = test: Phase 1: blood 2,3-DPG in SCD patients; type: in vivo, human
Procedure: In this study, SAD/MAD cohorts are randomized (3 to 1) to receive Compound 1 or placebo (P). Compound 1 was evaluated first in 4 healthy SAD cohorts and 4 healthy MAD (14-day dosing period) cohorts. Based on the safety, and PK/PD profile from HS, Compound 1 is then evaluated in 1 SCD SAD cohort and 2 SCD MAD cohorts. Specifically, based on the safety and pharmacokinetic/pharmacodynamics (PK/PD) profile in healthy volunteer studies, Compound 1 is evaluated in patients (pts) with SCD, first in a single dose (SD or SAD) cohort and then in multiple-dose (MD or MAD) cohorts (14-day and 12-week). Safety assessments include AEs, vital signs, ECGs and laboratory parameters. PK/PD blood sampling was performed on Day 1 (SAD/MAD) and Day 14 (MAD) and up to 72 h after the last dose and at the end-of-study visit. PD parameters included 2,3-DPG, ATP, and p50 in all cohorts with additional PD studies (including oxygen scan) performed only in the SCD cohorts. PD parameters included 2,3-DPG, ATP, p50, RBC deformability with controlled deoxygenation and reoxygenation (Lorrca® oxygen scan) and varying osmolality (Lorrca® osmoscan)). To maintain study blind, pt identifiers were removed when needed.
The onset of the increase in ATP blood levels after a single 700 mg dose of Compound 1 was faster in SCD patients than in healthy volunteers, while the onset of the decrease in 2,3-DPG blood levels was slower.
The following procedures are employed for the analysis of ATP and 2,3-DPG in human whole blood K2EDTA using a protein precipitation extraction procedure and analysis by LC-MS/MS.
The following procedures are used for sample extraction prior to analysis via LC-MS/MS. 15.0 μL of the calibration standards, quality controls, matrix blanks, and samples are aliquoted into a 96-well plate. 50.0 μL of the internal standard spiking solution is added to all samples on the plate, with the exception of the matrix blank samples; 50.0 μL of water is added to the matrix blank samples. Subsequently, 150 μL of water is added to all samples on the plate. The plate is then covered and agitated by vortex at high speed for ten minutes, after which 750 μL of methanol is added to all samples on the plate. The plate is covered and agitated by vortex for approximately 1 minute. The plate is then centrifuged at approximately 3500 RPM at approximately 4° C. for five minutes. After centrifugation, a liquid handler is used to transfer 50 μL of each sample to a new 96-well plate, and 200 μL of acetonitrile is added to all samples on the plate. The newly prepared plate is covered and agitated by vortex for approximately 1 minute. The plate is then centrifuged at approximately 3500 RPM at approximately 4° C. for 2 minutes.

Log D7.4 = type: physicochemical; conditions: pH 7.4
Description: [drawing 2] is a selective, orally bioavailable PKR Activating Compound that decreases 2,3-DPG, increases ATP, and has anti-sickling effects in disease models with a wide therapeutic margin relative to preclinical toxicity. Compound 1 is a potent activator of PKR and a multi-modal metabolic modulator of RBCs. Activation of PKR simultaneously reduces 2,3-DPG concentrations, which increases hemoglobin-oxygen affinity and decreases sickling, while also increasing intracellular ATP, which improves RBC health and reduces hemolysis, or RBC death. Compound 1 is a BCS class II compound with poor water solubility and high permeability.

[1] = system: Red blood cells from SCD patients; test: Ex vivo Hgb oxygen equilibrium curves in SCD RBCs; type: cell-based, human; conditions: 10 μM
Procedure: Red blood cells from SCD patients were used to evaluate the effects of Compound 1 on Hgb affinity for oxygen (i.e., oxygen affinity) and sickling under hypoxic conditions. Cells were incubated at 37° C. for 1, 2, and 3 hr with HEPES buffered saline (HBS) (untreated), HBS+dimethyl sulfoxide (DMSO) (vehicle), or 10 μM Compound 1. To assess oxygen dissociation, Hgb oxygen equilibrium curves were collected during deoxygenation.

[2] = system: panels of receptors, enzymes, ion channels, and kinases; test: Preclinical safety: arrhythmia risk, mutagenicity, nonspecific binding panels; conditions: in vitro panels

Structure (SMILES): O=C([C@H](CO)c1ccccc1)N1CC2=C(C1)CN(S(=O)(=O)c1cnc3c(c1)OCCO3)C2 (single isomer, unassigned) [Compound 1]
- mean percentage change in 2,3-DPG blood levels (2,3-DPG blood levels; SCD 300 mg QD, Day 1, 0 h after first daily dose): 0%
- mean percentage change in 2,3-DPG blood levels (2,3-DPG blood levels; SCD 300 mg QD, Day 1, 24 h after first daily dose): −23%
- mean percentage change in 2,3-DPG blood levels (2,3-DPG blood levels; SCD 300 mg QD, Day 14, 0 h after first daily dose): −25%
- mean percentage change in 2,3-DPG blood levels (2,3-DPG blood levels; SCD 300 mg QD, Day 14, 6 h after first daily dose): −29%
- mean percentage change in 2,3-DPG blood levels (2,3-DPG blood levels; SCD 300 mg QD, Day 14, 24 h after first daily dose): −29%
- mean percentage change in 2,3-DPG blood levels (2,3-DPG blood levels; SCD 300 mg QD, Day 14, 48 h after first daily dose): −22%
- mean percentage change in 2,3-DPG blood levels (2,3-DPG blood levels; SCD single 700 mg, 0 h after dose): 0%
- mean percentage change in 2,3-DPG blood levels (2,3-DPG blood levels; SCD single 700 mg, 6 h after dose): −16%
- mean percentage change in 2,3-DPG blood levels (2,3-DPG blood levels; SCD single 700 mg, 24 h after dose): −31%
- mean percentage change in 2,3-DPG blood levels (2,3-DPG blood levels; SCD single 700 mg, 48 h after dose): −21%
- mean percentage change in 2,3-DPG blood levels (2,3-DPG blood levels; SCD single 700 mg, 72 h after dose): −8%
- lag of maximum decrease in blood 2,3-DPG behind maximum plasma concentration (2,3-DPG blood levels; SCD single 700 mg, FIG. 54B): about 24 hours
- decrease in 2,3-DPG blood concentrations (2,3-DPG blood levels; SCD, 24 hours after single 700-mg dose, FIG. 46A): 26%
- Log D7.4 (Log D7.4): 1.09
- Hgb saturation higher compared to DMSO-treated cells ([1]; 2 hr): approximately 10%
- p50 ([1]; after 1 hr, shifted from 29 mmHg): 25 mmHg
- Hemoglobin Saturation ([1]; incubation 1 hr, normalized to 1.00 (DMSO 1.18)): 1.05
- Hemoglobin Saturation ([1]; incubation 2 hr, normalized to 1.00 (DMSO 1.18)): 1.00
- Hemoglobin Saturation ([1]; incubation 3 hr, normalized to 1.00 (DMSO 1.30)): 1.02
- preclinical evidence of arrhythmia risk, mutagenicity, nonspecific binding [2]: has not demonstrated any preclinical evidence of arrhythmia risk, mutagenicity, or nonspecific binding activity

Source: US12128035B2, “Activating pyruvate kinase R” (Novo Nordisk Health Care AG, priority 2021, dated 2024)
